Measured values taken from patent publication US8796317B2, “Use of 7-nitro-2,1,3-benzoxadiazole derivatives for anticancer therapy” (Universita Degli Studi di Roma “Tor Vergata”, priority 2003, dated 2014).
Values joined by “and” are separate entries in the source; they are usually repeats but may differ in a detail not shown here. Identical values can stand only once.

Experiments:
[1] = tested on: K562 (human myeloid leukaemia); assay: SRB cell growth test; type: cell-based; conditions: K562, read-out: Activity trials on cell lines - IC50 (50% inhibition of cell growth), K562, 48 hours
Experimental: (§1) Four cancer cell lines were used for testing the anticancer activity of the derivatives of 7-nitro-2,1,3-benzoxadiazole: K562 (human myeloid leukaemia), HepG2 (human hepatic carcinoma), CEM1.3 (human T-lymphoblastic leukaemia) and GLC-4 (human small cell lung carcinoma).
(§2) The human cancer cell lines were maintained in RPMI 1640 (containing L-glutamine 2 mM and 0.1 g/l of penicillin-G/streptomycin sulphate) enriched with 5% foetal bovine serum (FBS), at 37° C., 5% CO2 and 98% humidity.
(§3) The cells were placed in 96-well plates at a density of 15,000 cells per well, in a culture medium volume of 100 μl. After 24 hours, each of the 7-nitro-2,1,3-benzoxadiazole derivatives to be assayed, at the required concentration, was added to the culture medium. At the same time, some control trials were arranged by adding to the wells the solvent in which the compound was dissolved (% v/v of DMSO in PBS). All measurements were carried out in quadruplicate.
(§4) The cells were incubated for 48 hours at 37° C., at 5% CO2.
(§5) In order to obtain a dose-response profile for each derivative of 7-nitro-2,1,3-benzoxadiazole under study, an evaluation process based on the method described by Shekan et al (J. Natl. Cancer. Inst. 82, (1990), 1107-1112) was used.
(§6) After incubation, the percentage cell growth was evaluated by an insitu cell fixation procedure, followed by an SRB test using a colouring procedure with sulphorodamine B capable of specifically binding to proteins. The coloured product was then solubilised and quantified spectrophotometrically in order to determine the growth of the cells treated with the compound under study with respect to the ones treated with the solvent only.

[2] = tested on: HepG2 (human hepatic carcinoma); assay: SRB cell growth test; type: cell-based; conditions: HepG2, read-out: Activity trials on cell lines - IC50 (50% inhibition of cell growth), HepG2, 48 hours
Experimental: as §1, §2, §3, §4, §5, §6

[3] = tested on: GLC-4 (human small cell lung carcinoma); assay: SRB cell growth test; type: cell-based; conditions: GLC4, read-out: Activity trials on cell lines - IC50 (50% inhibition of cell growth), GLC-4, 48 hours
Experimental: as §1, §2, §3, §4, §5, §6

[4] = tested on: CEM1.3 (human T-lymphoblastic leukaemia); assay: SRB cell growth test; type: cell-based; conditions: CEM13, read-out: Activity trials on cell lines - IC50 (50% inhibition of cell growth), CEM1.3, 48 hours
Experimental: as §1, §2, §3, §4, §5, §6

GST P1-1 = molecular target: T1, GST P1-1 (Homo sapiens, UniProt P09211); assay: Inhibition of GST activity (CDNB/GSH spectrophotometric assay); type: biochemical; conditions: for IC50: 25° C., pH 6.5, 1 mM glutathione, 1 mM CDNB
T1 construct: made in house; host or cells: Escherichia coli
T1 sequence (P09211 2-210 limits assumed): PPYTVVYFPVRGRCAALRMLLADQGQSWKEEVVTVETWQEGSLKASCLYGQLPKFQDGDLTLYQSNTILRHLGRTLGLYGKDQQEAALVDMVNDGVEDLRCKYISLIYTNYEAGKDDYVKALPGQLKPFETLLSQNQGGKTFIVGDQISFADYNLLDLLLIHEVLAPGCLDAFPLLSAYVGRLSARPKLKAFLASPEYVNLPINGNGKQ
Experimental: (§7) GSTA1-1, M2-2 and P1-1, expressed in Escherichia coli, were purified by using a chromatographic passage on an affinity resin capable of selectively retaining the GST (J. Biol. Chem. 270, (1995), 1249-1253).
(§8) GST activity was tested at 25° C. with a 0.1 M potassium phosphate buffer, at pH 6.5, in the presence of the substrates, i.e. of the glutathione (Sigma-Aldrich, Fine Chemicals) in a concentration of 1 mM, and of 1-chloro-2,4-dinitrobenzene (CDNB) (Sigma-Aldrich, Fine Chemicals) 1 mM (Methods Enzymol. 77, 1981, 398-405).
(§9) Enzymatic activity was assessed spectrophotometrically at 340 nm, a wavelength at which it absorbs the reaction product S-(2,4-dinitrobenzene)glutathione (GS-DNB) (6=9.6 mM^−1 cm^−1).

GST A1-1 = molecular target: T2, GST A1-1 (Homo sapiens, UniProt P08263); assay: as above; type: biochemical; conditions: 25° C., pH 6.5, 1 mM glutathione, 1 mM CDNB
T2 construct: made in house; host or cells: Escherichia coli
T2 sequence (P08263 1-222): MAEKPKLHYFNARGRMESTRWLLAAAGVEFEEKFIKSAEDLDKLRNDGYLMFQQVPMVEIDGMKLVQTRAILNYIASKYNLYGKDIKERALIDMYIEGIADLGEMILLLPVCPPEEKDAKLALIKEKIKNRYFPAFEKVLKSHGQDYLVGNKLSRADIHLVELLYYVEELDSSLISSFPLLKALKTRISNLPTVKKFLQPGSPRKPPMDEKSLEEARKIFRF
Experimental: (§10) These compounds were tested as inhibitors of the activity of the isoenzymes GSTP1-1, GSTA1-1 and GSTM2-2 belonging to the most representative GST classes: the Pi, Mu and Alpha classes.
as §7, §8, §9

GST M2-2 = molecular target: T3, GST M2-2 (Homo sapiens, UniProt P28161); assay: as above; type: biochemical; conditions: 25° C., pH 6.5, 1 mM glutathione, 1 mM CDNB
T3 construct: made in house; host or cells: Escherichia coli
T3 sequence (P28161 1-218): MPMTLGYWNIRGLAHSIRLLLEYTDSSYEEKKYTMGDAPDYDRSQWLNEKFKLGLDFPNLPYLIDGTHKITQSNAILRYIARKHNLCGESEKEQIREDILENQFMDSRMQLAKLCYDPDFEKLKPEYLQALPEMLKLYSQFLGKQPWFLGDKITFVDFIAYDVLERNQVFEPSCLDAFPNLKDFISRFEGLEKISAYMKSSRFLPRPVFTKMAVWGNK
Experimental: as §10, §7, §8, §9

caspase-3 in K562 cells = assay: Caspase-3 activation (Ac-DEVD-AFC) in cell lysates; type: cell-based, human; conditions: K562, 10 μM, after 24 h
Experimental: Pellets of cells at different times of incubation with 7-nitro-benzofurazan derivative No. 2 (10 μM and 2 μM with K562 and CEM1.3 respectively), were resuspended with lysis buffer (100 mM Hepes, pH 7.6, 0.1% Chaps, 1 mM EDTA, 1 mM Phenyl-methyl-sulphonyl-fluoride and 10 mM DTT) for 20 min on ice and cells were disrupted by 10-s sonication. Lysates, after centrifugation, were utilized to measure the caspase-3 activity. The substrate utilized was the model fluorescent peptide Ac-DEVD-AFC (Acetyl-Asp-GluVal-Asp-7-amino-4-trifluoromethyl coumarin) which was proteolyzed by caspase-3 resulting in a fluorescence emission at 505 nm (excitation at 400 nm). As control, lysates were incubated 30 min at 30° C. with the caspase inhibitor DEVD-CHO before evaluation of enzyme activity. Caspase activity was expressed as fluorescence change observed per minute per number of cells.

[5] = molecular target: T4, GST-JNK complex in K562 cells (Homo sapiens, UniProt P09211); assay: Immunoprecipitation with anti-JNK antibody and Western blot; type: cell-based; conditions: K562 lysates, 10 μM; slightly increases only after 3 h
T4 construct: K562 cell lysates were immunoprecipitated with an anti-JNK antybody and used for Western blot analysis; endogenous in cells; host or cells: K562
T4 sequence (P09211 2-210 limits assumed, one chain of several): as the sequence (P09211 2-210 limits assumed) above
Experimental: For the immunoprecipitation analysis, cell pellets were resuspended in lysis buffer, and cells were disrupted by 10-s sonication. Lysates were then centrifuged at 14,000 g for 15 min at 4° C. Proteins were incubated in lysis buffer with anti-JNK antibody for 2 h at 4° C. Immunocomplexes were absorbed with protein A-Sepharose for 30 min at 4° C. After three washes with lysis buffer, immune pellets were boiled in SDS sample buffer. Proteins were loaded on 15% SDS-polyacrylamide gel and transferred to nitrocellulose. GST, JNK and phospho-JNK were detected by specific antibody.
To assess if cell treatment with derivative No. 2 affects the amount of GST-JNK complex, K562 cell lysates were immunoprecipitated with an anti-JNK antybody and used for Western blot analysis.

CEM1.3 cells = assay: Flow cytometric analysis of apoptosis (Annexin V-FITC / PI); type: cell-based, human; conditions: CEM1.3, 2 μM
Experimental: (§11) Cells were washed in PBS, and stained with propidium iodide and with the impermeant dye Annexin V-FITC (Bender MedSystems, Vienna, Austria). The stained cells were analysed using a FACScan Flow Cytometer (Becton-Dickinson, CA). Data were recorded and statistically analysed by WinMDI version 2.8 software. Simultaneous staining of cells with Annexin V-FITC and PI allows the discrimination of intact cells, early apoptotic and late apoptotic or necrotic cells.

K562 cells = assay: as above; type: cell-based, human; conditions: K562, 10 μM
Experimental: as §11

[6] = tested on: CEMVBL100, leukaemia line resistant to vinblastine (hyperexpressing P-glycoprotein); assay: Cytotoxicity of vinblastine on resistant cells with and without the derivative (SRB test); type: cell-based; conditions: CEM/VBL100, 48 h
Experimental: In cancer cells the resistance to many anticancer drugs is often associated with a high expression of P-glycoprotein, a membrane protein belonging to the overall family of ABC transporters (ATP-binding cassette).
The cells were placed in 96-well strips at a density of 15,000 cells per well, in a volume of culture medium of 100 μl. After 24 hours, a suitable concentration of between 25 nM and 1000 nM of vinblastine was added to the culture medium. […] At the same time, some control trials were arranged by adding to the wells the solvent in which the compound was dissolved (% v/v of DMSO in PBS). All measurements were carried out in quadruplicate. After 48 hours of incubation, a dosage-response profile was obtained by using the SRB test (J. Natl. Cancer. Inst. 82, (1990), 1107-1112, loc. cit.).

[7] = tested on: K562, HepG2, CEM1.3 and GLC-4 cancer cell lines; assay: Cytotoxicity, viability and cell penetration on all the tested cancer cell lines; type: cell-based, human
Experimental: as §1, §2
as §3, with “quadruplicate. […]” for “quadruplicate.”
as §6

Row | SMILES | IC50 [1] | IC50 [2] | IC50 [3] | IC50 [4] | IC50 (GST P1-1) | IC50 (GST A1-1) | IC50 (GST M2-2) | caspase-3 activity (caspase-3 in K562 cells) | amount of GSTP1-1 that co-precipitates with JNK [5] | apoptosis (CEM1.3 cells; 12 h treatment) | apoptosis (CEM1.3 cells; after 24 h) | apoptosis (K562 cells; 12 h treatment) | apoptosis (K562 cells; after 24 h) | IC50 ([6]; CEM VBL100, 7-nitro-2,1,3-benzoxadiazole derivative absent) | IC50 ([6]; CEM VBL100, with 0.5 μM 6-(7-nitro-2,1,3-benzoxadiazol-4-ylthio)hexanol) | inhibition activity with regard to the enzymatic isoform GSTP1-1 (in words) (GST P1-1) | viability of all the tested cancer cell lines ([7]; 48 hours of incubation with 50 μM) | penetration into the cells (intracellular fluorescence) ([7]; after 6 hours of incubation, various concentrations)
1 | O=[N+]([O-])c1ccc(SCCCCCCO)c2nonc12 [(2), 6-(7-nitro-2,1,3-benzoxadiazol-4-ylthio)hexanol] | 0.8 µM | 2.9 µM | 1.4 µM | 0.1 µM | – | 25 µM | 0.01 µM | strong increase of caspase-3 | rapidly decreased | 34% | 47% | 30% | 41% | – | – | – | – | –
2 | CC[C@]1(O)C[C@@H]2CN(CCc3c([nH]c4ccccc34)[C@@](C(=O)OC)(c3cc4c(cc3OC)N(C)[C@H]3[C@@](O)(C(=O)OC)[C@H](OC(C)=O)[C@]5(CC)C=CCN6CC[C@]43[C@@H]65)C2)C1 [vinblastine] | – | – | – | – | – | – | – | – | – | – | – | – | – | 0.34 µM | 0.05 µM | – | – | –
3 | O=[N+]([O-])c1ccc(SCCCCO)c2nonc12 [(1), 4-(7-nitro-2,1,3-benzoxadiazol-4-ylthio)butanol] | 2.2 µM | 3.2 µM | 3.2 µM | 0.2 µM | 2 µM | 56 µM | 0.03 µM | – | – | – | – | – | – | – | – | – | – | –
4 | O=[N+]([O-])c1ccc(NCCCCCCO)c2nonc12 [(6), 6-(7-nitro-2,1,3-benzoxadiazol-4-ylamino)hexanol] | > 50 µM | > 50 µM | > 50 µM | > 50 µM | – | > 100 µM | ~2 µM and 1.8 µM | – | – | – | – | – | – | – | – | no inhibition activity | still viable | easily penetrate the cells

More lines, main results first:

Row | IC50 [1] | IC50 [2] | IC50 [3] | IC50 [4] | IC50 (GST P1-1) | IC50 (GST A1-1) | IC50 (GST M2-2) | SMILES | caspase-3 activity (caspase-3 in K562 cells) | amount of GSTP1-1 that co-precipitates with JNK [5] | apoptosis (CEM1.3 cells; 12 h treatment) | apoptosis (CEM1.3 cells; after 24 h) | apoptosis (K562 cells; 12 h treatment) | apoptosis (K562 cells; after 24 h) | IC50 ([6]; CEM VBL100, 7-nitro-2,1,3-benzoxadiazole derivative absent) | IC50 ([6]; CEM VBL100, with 0.5 μM 6-(7-nitro-2,1,3-benzoxadiazol-4-ylthio)hexanol) | inhibition activity with regard to the enzymatic isoform GSTP1-1 (in words) (GST P1-1) | viability of all the tested cancer cell lines ([7]; 48 hours of incubation with 50 μM) | penetration into the cells (intracellular fluorescence) ([7]; after 6 hours of incubation, various concentrations)
5 | 6.4 µM | 16.3 µM | 7.5 µM | 2.4 µM | 0.7 µM | 6.5 µM | 0.03 µM | O=[N+]([O-])c1ccc(Sc2ccc(O)cc2)c2nonc12 [(4), 4-(7-nitro-2,1,3-benzoxadiazol-4-ylthio)phenol] | – | – | – | – | – | – | – | – | – | – | –
6 | 8.8 µM | 16 µM | 10 µM | 3.9 µM | 6.3 µM | 11 µM | 0.01 µM | O=[N+]([O-])c1ccc(Sc2ncc[nH]2)c2nonc12 [(3), 2-(7-nitro-2,1,3-benzoxadiazol-4-ylthio)imidazole] | – | – | – | – | – | – | – | – | – | – | –
7 | 38 µM | 25 µM | 16.5 µM | 6.5 µM | 5.74 µM | 66 µM | 0.31 µM | O=C(O)CCSc1ccc([N+](=O)[O-])c2nonc12 [(5), 3-(7-nitro-2,1,3-benzoxadiazol-4-ylthio)propionic acid] | – | – | – | – | – | – | – | – | – | – | –
